Oligonucleotides are given in HELM: sugar(base)linkage, 5' to 3'; d 2'-deoxyribose, r ribose, m 2'-O-methylribose, p phosphate. ss, as = sense and antisense strand

The values that follow come from the OligoGym collection.
Further: test concentration or dose not given here.

The target of this data set is UBE2K. In words: reporter assay of Huesken 2005. Particulars: siRNA. For orientation: In a reporter assay the amount or activity of a reporter protein is the signal.
“RNA1{r(C)p.r(C)p.r(A)p.r(G)p.r(A)p.r(U)p.r(G)p.r(A)p.r(U)p.r(C)p.r(C)p.r(A)p.r(C)p.r(A)p.r(G)p.r(G)p.r(A)p.r(U)p.r(G)p.d(T)p.d(T)}|RNA2{r(C)p.r(A)p.r(U)p.r(C)p.r(C)p.r(U)p.r(G)p.r(U)p.r(G)p.r(G)p.r(A)p.r(U)p.r(C)p.r(A)p.r(U)p.r(C)p.r(U)p.r(G)p.r(G)p.d(C)p.d(T)}$$$RNA1{StrandType:ss}|RNA2{StrandType:as}$”: the normalised inhibition (eCFP-eYFP dual reporter) was determined as 66.7%. For “RNA1{r(C)p.r(C)p.r(C)p.r(G)p.r(A)p.r(A)p.r(A)p.r(U)p.r(G)p.r(U)p.r(U)p.r(C)p.r(A)p.r(A)p.r(A)p.r(C)p.r(A)p.r(G)p.r(A)p.d(T)p.d(T)}|RNA2{r(U)p.r(C)p.r(U)p.r(G)p.r(U)p.r(U)p.r(U)p.r(G)p.r(A)p.r(A)p.r(C)p.r(A)p.r(U)p.r(U)p.r(U)p.r(C)p.r(G)p.r(G)p.r(G)p.d(A)p.d(T)}$$$RNA1{StrandType:ss}|RNA2{StrandType:as}$” the value was 92.7%. With “RNA1{r(C)p.r(C)p.r(G)p.r(C)p.r(A)p.r(C)p.r(G)p.r(G)p.r(U)p.r(A)p.r(U)p.r(U)p.r(A)p.r(U)p.r(U)p.r(G)p.r(U)p.r(C)p.r(A)p.d(T)p.d(T)}|RNA2{r(U)p.r(G)p.r(A)p.r(C)p.r(A)p.r(A)p.r(U)p.r(A)p.r(A)p.r(U)p.r(A)p.r(C)p.r(C)p.r(G)p.r(U)p.r(G)p.r(C)p.r(G)p.r(G)p.d(A)p.d(G)}$$$RNA1{StrandType:ss}|RNA2{StrandType:as}$”, the normalised inhibition (eCFP-eYFP dual reporter) is 63.3%. As for “RNA1{r(C)p.r(C)p.r(G)p.r(G)p.r(U)p.r(U)p.r(U)p.r(A)p.r(U)p.r(C)p.r(A)p.r(C)p.r(U)p.r(A)p.r(A)p.r(A)p.r(A)p.r(U)p.r(A)p.d(T)p.d(T)}|RNA2{r(U)p.r(A)p.r(U)p.r(U)p.r(U)p.r(U)p.r(A)p.r(G)p.r(U)p.r(G)p.r(A)p.r(U)p.r(A)p.r(A)p.r(A)p.r(C)p.r(C)p.r(G)p.r(G)p.d(A)p.d(C)}$$$RNA1{StrandType:ss}|RNA2{StrandType:as}$”, the figure is 89.7%; as for “RNA1{r(C)p.r(C)p.r(U)p.r(A)p.r(A)p.r(U)p.r(A)p.r(U)p.r(U)p.r(A)p.r(G)p.r(U)p.r(U)p.r(C)p.r(C)p.r(G)p.r(U)p.r(C)p.r(A)p.d(T)p.d(T)}|RNA2{r(U)p.r(G)p.r(A)p.r(C)p.r(G)p.r(G)p.r(A)p.r(A)p.r(C)p.r(U)p.r(A)p.r(A)p.r(U)p.r(A)p.r(U)p.r(U)p.r(A)p.r(G)p.r(G)p.d(A)p.d(T)}$$$RNA1{StrandType:ss}|RNA2{StrandType:as}$”, 74.9%; as for “RNA1{r(C)p.r(C)p.r(U)p.r(C)p.r(C)p.r(A)p.r(G)p.r(A)p.r(C)p.r(A)p.r(C)p.r(A)p.r(C)p.r(C)p.r(A)p.r(U)p.r(A)p.r(U)p.r(G)p.d(T)p.d(T)}|RNA2{r(C)p.r(A)p.r(U)p.r(A)p.r(U)p.r(G)p.r(G)p.r(U)p.r(G)p.r(U)p.r(G)p.r(U)p.r(C)p.r(U)p.r(G)p.r(G)p.r(A)p.r(G)p.r(G)p.d(T)p.d(C)}$$$RNA1{StrandType:ss}|RNA2{StrandType:as}$”, 66.9%. For “RNA1{r(C)p.r(U)p.r(G)p.r(A)p.r(A)p.r(A)p.r(G)p.r(A)p.r(U)p.r(C)p.r(A)p.r(A)p.r(U)p.r(G)p.r(G)p.r(G)p.r(C)p.r(A)p.r(G)p.d(T)p.d(T)}|RNA2{r(C)p.r(U)p.r(G)p.r(C)p.r(C)p.r(C)p.r(A)p.r(U)p.r(U)p.r(G)p.r(A)p.r(U)p.r(C)p.r(U)p.r(U)p.r(U)p.r(C)p.r(A)p.r(G)p.d(G)p.d(A)}$$$RNA1{StrandType:ss}|RNA2{StrandType:as}$” the value was 79.2%; for “RNA1{r(C)p.r(U)p.r(U)p.r(G)p.r(U)p.r(A)p.r(G)p.r(A)p.r(U)p.r(G)p.r(A)p.r(G)p.r(A)p.r(A)p.r(U)p.r(U)p.r(U)p.r(U)p.r(A)p.d(T)p.d(T)}|RNA2{r(U)p.r(A)p.r(A)p.r(A)p.r(A)p.r(U)p.r(U)p.r(C)p.r(U)p.r(C)p.r(A)p.r(U)p.r(C)p.r(U)p.r(A)p.r(C)p.r(A)p.r(A)p.r(G)p.d(A)p.d(T)}$$$RNA1{StrandType:ss}|RNA2{StrandType:as}$”, 91.3%. “RNA1{r(G)p.r(A)p.r(A)p.r(A)p.r(U)p.r(G)p.r(U)p.r(U)p.r(C)p.r(A)p.r(A)p.r(A)p.r(C)p.r(A)p.r(G)p.r(A)p.r(C)p.r(A)p.r(G)p.d(T)p.d(T)}|RNA2{r(C)p.r(U)p.r(G)p.r(U)p.r(C)p.r(U)p.r(G)p.r(U)p.r(U)p.r(U)p.r(G)p.r(A)p.r(A)p.r(C)p.r(A)p.r(U)p.r(U)p.r(U)p.r(C)p.d(G)p.d(G)}$$$RNA1{StrandType:ss}|RNA2{StrandType:as}$” gave a normalised inhibition (eCFP-eYFP dual reporter) of 76.6%. Turning to “RNA1{r(G)p.r(A)p.r(A)p.r(U)p.r(U)p.r(A)p.r(A)p.r(G)p.r(A)p.r(G)p.r(G)p.r(A)p.r(G)p.r(A)p.r(A)p.r(A)p.r(U)p.r(A)p.r(G)p.d(T)p.d(T)}|RNA2{r(C)p.r(U)p.r(A)p.r(U)p.r(U)p.r(U)p.r(C)p.r(U)p.r(C)p.r(C)p.r(U)p.r(C)p.r(U)p.r(U)p.r(A)p.r(A)p.r(U)p.r(U)p.r(C)p.d(T)p.d(G)}$$$RNA1{StrandType:ss}|RNA2{StrandType:as}$”, the normalised inhibition (eCFP-eYFP dual reporter) was determined as 74.2%. For the substance “RNA1{r(G)p.r(A)p.r(C)p.r(A)p.r(C)p.r(A)p.r(C)p.r(C)p.r(A)p.r(U)p.r(A)p.r(U)p.r(G)p.r(A)p.r(A)p.r(G)p.r(G)p.r(A)p.r(G)p.d(T)p.d(T)}|RNA2{r(C)p.r(U)p.r(C)p.r(C)p.r(U)p.r(U)p.r(C)p.r(A)p.r(U)p.r(A)p.r(U)p.r(G)p.r(G)p.r(U)p.r(G)p.r(U)p.r(G)p.r(U)p.r(C)p.d(T)p.d(G)}$$$RNA1{StrandType:ss}|RNA2{StrandType:as}$”, the normalised inhibition (eCFP-eYFP dual reporter) is 64.2%.

Regarding “RNA1{r(G)p.r(A)p.r(G)p.r(G)p.r(A)p.r(A)p.r(G)p.r(A)p.r(U)p.r(A)p.r(C)p.r(C)p.r(A)p.r(A)p.r(C)p.r(U)p.r(A)p.r(G)p.r(A)p.d(T)p.d(T)}|RNA2{r(U)p.r(C)p.r(U)p.r(A)p.r(G)p.r(U)p.r(U)p.r(G)p.r(G)p.r(U)p.r(A)p.r(U)p.r(C)p.r(U)p.r(U)p.r(C)p.r(C)p.r(U)p.r(C)p.d(C)p.d(T)}$$$RNA1{StrandType:ss}|RNA2{StrandType:as}$”, the normalised inhibition (eCFP-eYFP dual reporter) was found to be 79.3%. With “RNA1{r(G)p.r(A)p.r(G)p.r(G)p.r(A)p.r(G)p.r(A)p.r(A)p.r(A)p.r(U)p.r(A)p.r(G)p.r(C)p.r(A)p.r(G)p.r(G)p.r(A)p.r(C)p.r(C)p.d(T)p.d(T)}|RNA2{r(G)p.r(G)p.r(U)p.r(C)p.r(C)p.r(U)p.r(G)p.r(C)p.r(U)p.r(A)p.r(U)p.r(U)p.r(U)p.r(C)p.r(U)p.r(C)p.r(C)p.r(U)p.r(C)p.d(T)p.d(T)}$$$RNA1{StrandType:ss}|RNA2{StrandType:as}$”, the normalised inhibition (eCFP-eYFP dual reporter) turned out to be 54.8%. On to “RNA1{r(G)p.r(A)p.r(U)p.r(C)p.r(C)p.r(A)p.r(C)p.r(A)p.r(G)p.r(G)p.r(A)p.r(U)p.r(G)p.r(C)p.r(U)p.r(G)p.r(U)p.r(A)p.r(G)p.d(T)p.d(T)}|RNA2{r(C)p.r(U)p.r(A)p.r(C)p.r(A)p.r(G)p.r(C)p.r(A)p.r(U)p.r(C)p.r(C)p.r(U)p.r(G)p.r(U)p.r(G)p.r(G)p.r(A)p.r(U)p.r(C)p.d(A)p.d(T)}$$$RNA1{StrandType:ss}|RNA2{StrandType:as}$”, for which the normalised inhibition (eCFP-eYFP dual reporter) came out at 67.6%. As for “RNA1{r(G)p.r(A)p.r(U)p.r(G)p.r(C)p.r(U)p.r(G)p.r(U)p.r(A)p.r(G)p.r(U)p.r(A)p.r(G)p.r(C)p.r(A)p.r(A)p.r(A)p.r(U)p.r(C)p.d(T)p.d(T)}|RNA2{r(G)p.r(A)p.r(U)p.r(U)p.r(U)p.r(G)p.r(C)p.r(U)p.r(A)p.r(C)p.r(U)p.r(A)p.r(C)p.r(A)p.r(G)p.r(C)p.r(A)p.r(U)p.r(C)p.d(C)p.d(T)}$$$RNA1{StrandType:ss}|RNA2{StrandType:as}$”, the figure is 65.5%; as for “RNA1{r(G)p.r(C)p.r(A)p.r(G)p.r(C)p.r(U)p.r(G)p.r(C)p.r(A)p.r(A)p.r(U)p.r(G)p.r(A)p.r(C)p.r(U)p.r(C)p.r(U)p.r(C)p.r(C)p.d(T)p.d(T)}|RNA2{r(G)p.r(G)p.r(A)p.r(G)p.r(A)p.r(G)p.r(U)p.r(C)p.r(A)p.r(U)p.r(U)p.r(G)p.r(C)p.r(A)p.r(G)p.r(C)p.r(U)p.r(G)p.r(C)p.d(C)p.d(C)}$$$RNA1{StrandType:ss}|RNA2{StrandType:as}$”, 47.4%. In turn, “RNA1{r(G)p.r(C)p.r(C)p.r(A)p.r(G)p.r(A)p.r(U)p.r(G)p.r(A)p.r(U)p.r(C)p.r(C)p.r(A)p.r(C)p.r(A)p.r(G)p.r(G)p.r(A)p.r(U)p.d(T)p.d(T)}|RNA2{r(A)p.r(U)p.r(C)p.r(C)p.r(U)p.r(G)p.r(U)p.r(G)p.r(G)p.r(A)p.r(U)p.r(C)p.r(A)p.r(U)p.r(C)p.r(U)p.r(G)p.r(G)p.r(C)p.d(T)p.d(C)}$$$RNA1{StrandType:ss}|RNA2{StrandType:as}$” showed a normalised inhibition (eCFP-eYFP dual reporter) of 74.9%. As for “RNA1{r(G)p.r(C)p.r(U)p.r(G)p.r(C)p.r(A)p.r(A)p.r(U)p.r(G)p.r(A)p.r(C)p.r(U)p.r(C)p.r(U)p.r(C)p.r(C)p.r(G)p.r(C)p.r(A)p.d(T)p.d(T)}|RNA2{r(U)p.r(G)p.r(C)p.r(G)p.r(G)p.r(A)p.r(G)p.r(A)p.r(G)p.r(U)p.r(C)p.r(A)p.r(U)p.r(U)p.r(G)p.r(C)p.r(A)p.r(G)p.r(C)p.d(T)p.d(G)}$$$RNA1{StrandType:ss}|RNA2{StrandType:as}$”, the figure is 87.1%.

Consider “RNA1{r(G)p.r(C)p.r(U)p.r(G)p.r(U)p.r(A)p.r(G)p.r(U)p.r(A)p.r(G)p.r(C)p.r(A)p.r(A)p.r(A)p.r(U)p.r(C)p.r(A)p.r(G)p.r(U)p.d(T)p.d(T)}|RNA2{r(A)p.r(C)p.r(U)p.r(G)p.r(A)p.r(U)p.r(U)p.r(U)p.r(G)p.r(C)p.r(U)p.r(A)p.r(C)p.r(U)p.r(A)p.r(C)p.r(A)p.r(G)p.r(C)p.d(A)p.d(T)}$$$RNA1{StrandType:ss}|RNA2{StrandType:as}$”, for which the normalised inhibition (eCFP-eYFP dual reporter) came out at 87.4%. Regarding “RNA1{r(G)p.r(G)p.r(C)p.r(A)p.r(G)p.r(C)p.r(U)p.r(G)p.r(C)p.r(A)p.r(A)p.r(U)p.r(G)p.r(A)p.r(C)p.r(U)p.r(C)p.r(U)p.r(C)p.d(T)p.d(T)}|RNA2{r(G)p.r(A)p.r(G)p.r(A)p.r(G)p.r(U)p.r(C)p.r(A)p.r(U)p.r(U)p.r(G)p.r(C)p.r(A)p.r(G)p.r(C)p.r(U)p.r(G)p.r(C)p.r(C)p.d(C)p.d(A)}$$$RNA1{StrandType:ss}|RNA2{StrandType:as}$”, the normalised inhibition (eCFP-eYFP dual reporter) was determined as 57.6%.
